Data from patent publication US11504425B2, “Amphiphilic oligodeoxynucleotide conjugates as adjuvant enhancers” (WAYNE STATE UNIVERSITY, priority 2019, dated 2022).

Columns and labels:
Raw-Blue reporter cells = test: Cellular uptake and confocal imaging in Raw-Blue cells; type: cell-based, murine
Protocol: DC 2.4 cells were cultured with RPMI-1640 supplemented with 10% FBS and 1% P/S; Raw-Blue cells were cultured as previously described. […] After incubation, cells were washed twice with 1×PBS by centrifuge at 800×g for 5 min prior to flow cytometry quantification. To visualize in vitro cellular uptake, DC 2.4 cells or Raw-Blue cells were cultured and incubated under the same experimental conditions and were subjected to confocal imaging by Zeiss LSM 510 microscope. […] Inhibitors: 5 μg/mL Filipin; 50 μM EIPA; 300 mM sucrose were tested.

[1] = test system: TLR7-mediated NF-κB activation in Raw-Blue reporter cells; test: Raw-Blue NF-κB/SEAP reporter stimulation with TLR7 ligands; type: cell-based, murine
Protocol: HEK-Blue™-mTLR7, mTLR8, hTLR7, hTLR8, and RAW-Blue™ cells were purchased from InvivoGen and were used to evaluate bioactivities of lipo ODNs and TLR 7/8 ligands in vitro. All these cell lines were cultured with DMEM supplemented with 10% FBS, 1% P/S and 100 μg/mL Normocin at 37° C. with 5% CO2. […] After incubating for 24 h, SEAP levels were quantified by developing supernatants with QuantiBlue™ substrate for 1 h and reading absorption at 620 nm, following manufacturer's instructions.
Following subcutaneous injection, lipid-modified oligonucleotides efficiently accumulated in the draining lymph nodes by binding and trafficking with endogenous albumin protein (Liu et al., Nature 507, 519-522, 2014; Yu et al., Pharmaceutical Res. 35: 56, 2018). Inspired by that prior work, the current study was aimed to take advantage of lipid functionalization in other oligonucleotide-based TLR inhibitors to further expand the pool of lipo suppressive ODNs. The therapeutic efficacy of lipid-modified IRS 954 in suppressing TLR7-mediated immune activation and alleviating the severity of SLE was investigated. Imiquimod (IMQ; FIG. 1A) was first used to stimulate TLR7-mediated immune activation in Raw-Blue reporter cells. For the initial experiments, Raw Blue cells-a murine RAW 264.7 macrophage cell line which expresses secreted embryonic alkaline phosphatase (SEAP) under the control of an NF-κB and AP-1, were used. Raw Blue cells express many toll-like receptors, including TLR-7, TLR-8, and TLR-9. The immunosuppressive capability of unmodified or lipo IRS 954 was determined by quantifying the level of TLR7-induced NF-κB activation.

human PBMC = test: Cytokine secretion by human PBMC (ELISA); type: cell-based; conditions: 24 h
Protocol: Whole blood was obtained from the Red Cross, where healthy volunteers had provided informed consent to donate blood. Peripheral blood mononuclear cells (PBMC) were isolated by density gradient centrifugation using Histopaque-1077 (Sigma-Aldrich). The mononuclear cells were washed twice with cold PBS (1×) and resuspended in completed RPMI-1640 supplemented with 10% FBS and 1% penicillin/streptomycin. PBMC were seeded at 2×10^6/ml in 200 μL in a 96-well plate.
Supernatants collected from splenocytes suspension or human PBMC suspension after incubation were separately analyzed for IL-6, IL-12p40, TNF-α, and IFN-α by ELISA following manufacturer's instructions.

## 5′-TTTTTTTTTTTTTTTTTTTT-3′ [T20]
Raw-Blue reporter cells; 1 μM FAM-labeled ODN, FBS-supplemented and FBS-free, LysoTracker Red
  colocalization with lysosomes: colocalized with lysosomes regardless of the presence of FBS
Raw-Blue reporter cells; 2 μM FITC-IMDQ + 1 μM ODN
  effect on cellular uptake of FITC-labeled IMDQ: neither T20 nor lipo T20 increased cellular uptake
[1]; 2 μM IMQ + 1 μM ODN, 24 h
  lowering of IMQ-induced NF-κB activation: 2 folds
[1]; 2 μM IMQ + 5 μM T20, 24 h
  IMQ-elicited activation with high-dose ODN: significantly enhanced inhibition in IMQ-elicited activation
[1]; ligands at indicated concentrations + 1 μM ODN, 24 h
  overall NF-κB stimulation by IMQ, CL075, R848 in the presence of the ODN: suppressive effect on all the TLR ligands tested
Human PBMC; CL264 + ODN
  IFN-α production: completely abrogated IFN-α production
Human PBMC; TLR8-506 + ODN
  IL-12 production: able to augment the IL-12 production
